Source: the supplement of paper PMC10307832

Experiments:
Experiment in all cases: relative viability (nuclei count vs DMSO), 5 days (fraction); higher = more cells survive
Ponatinib + Vorinostat = compound: Cc1ccc(C(=O)Nc2ccc(CN3CCN(C)CC3)c(C(F)(F)F)c2)cc1C#Cc1cnc2cccnn12 [Ponatinib] + O=C(CCCCCCC(=O)Nc1ccccc1)NO [Vorinostat] (partner 1 µM)
Summary of the method: (§1)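 Relative viability equals treated-well nuclei counts divided by vehicle-well nuclei counts. Counts came from 4× images of lung cancer cell lines grown in 1536-well plates for 5 days after pin-tool dosing on the day after seeding. Dosing used one drug alone or a fixed anchor-drug dose plus five library-drug doses (not always all listed) in √10 steps, and values are medians of duplicate plates.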

Ponatinib + OSI-027 = compound: Cc1ccc(C(=O)Nc2ccc(CN3CCN(C)CC3)c(C(F)(F)F)c2)cc1C#Cc1cnc2cccnn12 [Ponatinib] + COc1cccc2cc(-c3nc([C@H]4CC[C@H](C(=O)O)CC4)n4ncnc(N)c34)[nH]c12 [OSI-027] (partner 0.5 µM)
Summary of the method: as §1

Pazopanib + Linsitinib = compound: Cc1ccc(Nc2nccc(N(C)c3ccc4c(C)n(C)nc4c3)n2)cc1S(N)(=O)=O [Pazopanib] + C[C@]1(O)C[C@@H](c2nc(-c3ccc4ccc(-c5ccccc5)nc4c3)c3c(N)nccn32)C1 [Linsitinib] (partner 1 µM)
Summary of the method: as §1

Pazopanib + Navitoclax = compound: Cc1ccc(Nc2nccc(N(C)c3ccc4c(C)n(C)nc4c3)n2)cc1S(N)(=O)=O [Pazopanib] + CC1(C)CCC(c2ccc(Cl)cc2)=C(CN2CCN(c3ccc(C(=O)NS(=O)(=O)c4ccc(N[C@H](CCN5CCOCC5)CSc5ccccc5)c(S(=O)(=O)C(F)(F)F)c4)cc3)CC2)C1 [Navitoclax] (partner 0.5 µM)
Summary of the method: as §1

Cell Line	relative viability (Ponatinib + Vorinostat; first compound 0.002 µM)	relative viability (Ponatinib + Vorinostat; first compound 0.006325 µM)	relative viability (Ponatinib + Vorinostat; first compound 0.06325 µM)	relative viability (Ponatinib + Vorinostat; first compound 0.2 µM)	relative viability (Ponatinib + OSI-027; first compound 0.002 µM)	relative viability (Ponatinib + OSI-027; first compound 0.006325 µM)	relative viability (Ponatinib + OSI-027; first compound 0.06325 µM)	relative viability (Ponatinib + OSI-027; first compound 0.2 µM)	relative viability (Pazopanib + Linsitinib; first compound 0.01 µM)	relative viability (Pazopanib + Linsitinib; first compound 0.03162 µM)	relative viability (Pazopanib + Linsitinib; first compound 0.1 µM)	relative viability (Pazopanib + Linsitinib; first compound 0.3162 µM)	relative viability (Pazopanib + Linsitinib; first compound 1 µM)	relative viability (Pazopanib + Navitoclax; first compound 0.01 µM)	relative viability (Pazopanib + Navitoclax; first compound 0.03162 µM)	relative viability (Pazopanib + Navitoclax; first compound 0.1 µM)	relative viability (Pazopanib + Navitoclax; first compound 0.3162 µM)	relative viability (Pazopanib + Navitoclax; first compound 1 µM)
LXF-289	0.646	0.746	0.732	0.793	0.735	0.808	0.916	0.714	0.973	0.957	0.921	0.93	0.98	0.994	1.03	0.95	0.934	0.991
NCI-H23	0.504	0.588	0.607	0.634	0.621	0.645	0.53	0.456	0.505	0.629	0.556	0.567	0.842	0.899	0.843	1.16	1.02	1.06
NCI-H322M	0.882	0.823	0.833	0.741	0.595	0.425	0.508	0.425	0.772	1.06	0.899	1.05	0.972	1.03	1.19	1.27	1.36	1.24
NCI-H441	0.647	0.675	0.822	0.757	0.47	0.606	0.482	0.388	0.536	0.528	0.558	0.5	0.612	0.516	0.493	1.12	0.553	0.765
NCI-H460	0.665	0.657	0.74	0.664	0.605	0.56	0.637	0.49	0.823	1.13	0.838	0.98	0.827	0.849	1.19	1.34	1.16	1.15
NCI-H520	0.686	0.59	0.663	0.499	0.273	0.244	0.203	0.2	–	1.05	1	0.946	1.05	–	1.18	0.955	1.05	0.98
NCI-H596	0.659	0.7	0.556	0.522	0.653	0.619	0.516	0.392	0.833	1.12	1.24	1.06	1.03	0.843	0.997	0.978	0.924	0.837
NCI-H647	0.381	0.588	0.686	0.513	0.565	0.716	0.69	0.502	1.17	1.4	1.17	1.23	1.11	1.14	1.08	1.21	1.17	1.16
NCI-H727	1.08	1.09	1.21	1.09	0.567	0.558	0.617	0.508	0.311	0.336	0.35	0.237	0.245	0.506	0.417	0.656	0.513	0.572
NCI-H838	0.755	0.764	0.773	0.664	0.416	0.416	0.482	0.349	1.01	1.05	1.01	1.18	1.19	1.1	1.22	1.21	1.24	1.26
NCI-H1355	0.564	0.604	0.677	0.615	0.409	0.48	0.43	0.385	–	0.909	0.921	0.856	0.861	–	0.899	1.09	1.07	0.979
NCI-H1395	0.483	0.578	0.678	0.416	0.519	0.57	0.558	0.505	0.983	1.27	1.07	0.992	1.05	1.15	1.25	1.24	1.33	1.28
NCI-H1437	0.859	0.858	0.938	0.901	0.809	0.864	1.01	0.75	1.04	1.07	0.973	1.04	1.05	1.11	1.06	1.07	0.985	1.08
NCI-H1651	0.507	0.579	0.602	0.601	0.639	0.638	0.825	0.66	1.11	0.901	0.886	0.982	1.08	1.1	1.16	1.17	1.12	1.16
NCI-H1666	0.998	1.01	1.08	0.89	0.727	0.762	0.872	0.79	1.15	0.857	0.909	0.767	1.07	1.06	0.975	0.926	1.22	1.01
NCI-H1734	0.763	0.777	0.914	0.773	0.58	0.589	0.521	0.449	0.823	0.963	0.905	0.942	0.933	0.796	0.795	0.854	0.875	0.901
NCI-H1755	0.685	0.777	0.72	0.82	0.652	0.694	0.707	0.595	0.934	0.995	1.01	0.967	1.01	0.852	0.937	1.01	1	0.991
NCI-H1793	0.678	0.701	0.846	0.686	0.281	0.256	0.273	0.175	–	0.871	0.835	0.83	0.905	–	0.421	0.387	0.463	0.542

Cell Line	relative viability (Ponatinib + Vorinostat; first compound 0.002 µM)	relative viability (Ponatinib + Vorinostat; first compound 0.006325 µM)	relative viability (Ponatinib + Vorinostat; first compound 0.06325 µM)	relative viability (Ponatinib + Vorinostat; first compound 0.2 µM)	relative viability (Ponatinib + OSI-027; first compound 0.002 µM)	relative viability (Ponatinib + OSI-027; first compound 0.006325 µM)	relative viability (Ponatinib + OSI-027; first compound 0.06325 µM)	relative viability (Ponatinib + OSI-027; first compound 0.2 µM)	relative viability (Pazopanib + Linsitinib; first compound 0.01 µM)	relative viability (Pazopanib + Linsitinib; first compound 0.03162 µM)	relative viability (Pazopanib + Linsitinib; first compound 0.1 µM)	relative viability (Pazopanib + Linsitinib; first compound 0.3162 µM)	relative viability (Pazopanib + Linsitinib; first compound 1 µM)	relative viability (Pazopanib + Navitoclax; first compound 0.01 µM)	relative viability (Pazopanib + Navitoclax; first compound 0.03162 µM)	relative viability (Pazopanib + Navitoclax; first compound 0.1 µM)	relative viability (Pazopanib + Navitoclax; first compound 0.3162 µM)	relative viability (Pazopanib + Navitoclax; first compound 1 µM)
NCI-H1915	0.457	0.49	0.469	0.491	0.546	0.651	0.639	0.56	1.12	1.14	1.08	1.03	0.994	0.821	0.782	0.78	0.768	0.729
NCI-H1944	0.519	0.637	0.693	0.679	0.387	0.43	0.44	0.394	1.08	1.28	1.15	1.24	1.32	0.942	0.997	1.09	1.05	1.08
NCI-H1975	0.669	0.71	0.688	0.579	0.602	0.575	0.47	0.503	0.85	0.943	0.992	0.929	0.985	1	1.2	1.17	1.12	1.02
NCI-H1993	0.783	1.19	0.962	0.734	0.516	0.495	0.469	0.567	0.717	0.757	0.726	0.638	0.852	0.734	0.735	0.988	1.01	0.889
NCI-H2009	0.666	0.783	0.694	0.585	0.486	0.496	0.759	0.545	1.22	1.22	1.21	1.15	1.06	1.19	1.18	1.2	1.11	0.979
NCI-H2023	0.661	0.634	0.851	0.593	0.347	0.379	0.399	0.267	0.699	0.637	0.863	0.623	0.682	0.972	1	0.98	1.01	1.01
NCI-H2085	0.768	0.877	1.02	0.825	0.624	0.704	0.753	0.727	0.818	0.862	0.901	0.797	0.887	1.18	1.22	1.26	1.15	1.31
NCI-H2087	0.635	0.549	0.366	0.662	0.667	0.525	0.593	0.563	1.02	0.967	1.13	0.841	0.895	1.03	1.04	1.1	1.01	0.8
NCI-H2126	0.784	0.777	0.988	0.789	0.779	0.818	0.845	0.563	0.563	0.734	0.749	0.677	0.774	0.798	0.779	0.848	0.817	0.881
NCI-H2228	0.658	0.588	0.7	0.575	0.474	0.431	0.705	0.376	0.741	0.665	0.792	0.901	0.607	0.847	1.1	1.03	0.98	0.913
NCI-H2347	0.496	0.554	0.643	0.504	0.373	0.421	0.371	0.239	0.854	1.01	1.1	1.09	1.12	0.722	0.805	0.836	0.842	0.858
NCI-H2405	0.896	0.906	1.01	0.822	0.613	0.642	0.605	0.631	0.729	1.12	1	1.12	1.02	0.903	0.985	1.05	1.27	1.07
NCI-H3122	0.936	1.07	0.994	1.05	1	0.988	1.02	0.834	0.969	1.06	0.998	1.12	0.945	1.09	1.05	1.05	1.08	1.13
PC-3 [JPC-3]	–	0.703	0.868	0.898	0.745	0.76	0.754	0.69	0.993	0.972	0.961	0.918	0.961	0.762	0.794	0.904	0.723	0.793
PC-14	0.68	0.668	0.9	0.647	0.747	0.778	0.933	0.699	0.971	1	0.961	0.985	1	1.06	1.06	1.09	0.954	0.948
RERF-LC-KJ	0.601	0.767	0.881	0.635	0.603	0.576	0.688	0.522	0.889	0.912	0.825	0.782	0.912	0.906	1.01	1.06	0.879	1.04
SK-LU-1	0.699	0.76	0.832	0.702	0.334	0.345	0.344	0.248	1.02	1.22	1.17	1.27	1.11	0.828	0.898	0.994	0.964	0.749
